From patent US10131652B2, “Pyrimidinyloxy benzene derivatives as herbicides” (E. I. DU PONT DE NEMOURS AND COMPANY, priority 2014, dated 2018)

Legend:
Assay in all cases: Test F pre-/postemergence plant response
Type in all cases: in vivo
[1] = tested on: hairy beggarticks (Bidens pilosa); conditions: Bidens pilosa, pre-emergence, scale 0 to 100, read-out: Plant response rating, Beggarticks
Method in brief: (§1)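 Herbicidal effect judged by eye against controls, scored 0–100 (complete control = 100). Applications: pre-emergence onto seeded silt loam, post-emergence onto 2–18 cm seedlings; greenhouse, 14–21 days.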

[2] = tested on: velvetleaf (Abutilon theophrasti); conditions: Abutilon theophrasti, pre-emergence, scale 0 to 100, read-out: Plant response rating, Velvetleaf
Method in brief: as §1

[3] = tested on: arrowleaf sida (Sida rhombifolia); conditions: Sida rhombifolia, pre-emergence, scale 0 to 100, read-out: Plant response rating, Arrowleaf Sida
Method in brief: as §1

[4] = tested on: Italian ryegrass (Lolium multiflorum); conditions: Lolium multiflorum, pre-emergence, Preemergence, scale 0 to 100, read-out: Plant response rating, Ryegrass, Italian
Method in brief: as §1

[5] = tested on: lambsquarters (Chenopodium album); conditions: Chenopodium album, pre-emergence, Preemergence, scale 0 to 100, read-out: Plant response rating, Lambsquarters
Method in brief: as §1

[6] = tested on: palmer pigweed (Amaranthus palmeri); conditions: Amaranthus palmeri, pre-emergence, scale 0 to 100, read-out: Plant response rating, Pigweed, Palmer
Method in brief: as §1

corn (Zea mays) = conditions: Zea mays, pre-emergence, scale 0 to 100
Method in brief: as §1

[7] = tested on: ragweed (common ragweed, Ambrosia elatior); conditions: Ambrosia artemisiifolia, pre-emergence, scale 0 to 100, read-out: Plant response rating, Ragweed
Method in brief: as §1

[8] = tested on: waterhemp (common waterhemp, Amaranthus rudis); conditions: Amaranthus tuberculatus, pre-emergence, scale 0 to 100, read-out: Plant response rating, Waterhemp
Method in brief: as §1

[9] = tested on: goosegrass (Eleusine indica); conditions: Eleusine indica, pre-emergence, scale 0 to 100, read-out: Plant response rating, Goosegrass
Method in brief: as §1

soybean (Glycine max) = conditions: Glycine max, pre-emergence, scale 0 to 100, read-out: Plant response rating, Soybean
Method in brief: as §1

[10] = tested on: sandbur (southern sandbur, Cenchrus echinatus); conditions: Cenchrus echinatus, pre-emergence, scale 0 to 100, read-out: Plant response rating, Sandbur
Method in brief: as §1

[11] = tested on: surinam grass (Brachiaria decumbens); conditions: Urochloa decumbens, pre-emergence, scale 0 to 100, read-out: Plant response rating, Surinam Grass
Method in brief: as §1

[12] = tested on: barnyardgrass (Echinochloa crus-galli); conditions: Echinochloa crus-galli, pre-emergence, scale 0 to 100, read-out: Plant response rating, Barnyardgrass
Method in brief: as §1

[13] = tested on: yellow nutsedge (Cyperus esculentus); conditions: Cyperus, pre-emergence, scale 0 to 100, read-out: Plant response rating, Nutsedge, Yellow
Method in brief: as §1

[14] = tested on: dayflower (Virginia (VA) dayflower, Commelina virginica); conditions: Commelina virginica, pre-emergence, scale 0 to 100, read-out: Plant response rating, Dayflower, VA
Method in brief: as §1

Fc1cccc(Oc2ncc(Cl)cn2)c1-c1cc(C(F)(F)F)on1 [Compound 168, 5-chloro-2-[2-[5-(trifluoromethyl)-3-isoxazolyl]-3-fluorophenoxy]pyrimidine]
75%: pest or weed control at 31 g/ha ([2]; 31 g ai/ha Preemergence)
20%: plant injury at 62 g/ha (soybean (Glycine max); Preemergence) | pest or weed control at 125 g/ha ([13]; 125 g ai/ha Preemergence)
5%: pest or weed control at 16 g/ha ([14]; 16 g ai/ha Preemergence)
40%: Corn plant response rating (crop injury, 0 = no effect, 100 = complete kill) at 62 g/ha (corn (Zea mays); 62 g ai/ha Preemergence) | plant injury at 125 g/ha (soybean (Glycine max); 125 g ai/ha Preemergence)
30%: pest or weed control at 31 g/ha ([4]; 31 g ai/ha) | pest or weed control at 31 g/ha ([10]; 31 g ai/ha Preemergence)
95%: pest or weed control at 16 g/ha ([3]; 16 g ai/ha Preemergence) | pest or weed control at 31 g/ha ([9]; 31 g ai/ha Preemergence)
25%: pest or weed control at 31 g/ha ([12]; 31 g ai/ha Preemergence)
98%: pest or weed control at 16 g/ha ([6]; 16 g ai/ha Preemergence) | pest or weed control at 125 g/ha ([7]; 125 g ai/ha Preemergence) | pest or weed control at 62 g/ha ([9]; Preemergence)
35%: pest or weed control at 16 g/ha ([2]; 16 g ai/ha Preemergence) | Corn plant response rating (crop injury, 0 = no effect, 100 = complete kill) at 125 g/ha (corn (Zea mays); 125 g ai/ha Preemergence) | pest or weed control at 31 g/ha ([7]; 31 g ai/ha Preemergence)
10%: pest or weed control at 16 g/ha ([7]; 16 g ai/ha Preemergence) | pest or weed control at 16 g/ha ([10]; 16 g ai/ha Preemergence) | pest or weed control at 31 g/ha ([14]; 31 g ai/ha Preemergence)
90%: pest or weed control at 125 g/ha ([10]; 125 g ai/ha Preemergence) | pest or weed control at 125 g/ha ([14]; 125 g ai/ha Preemergence)
80%: pest or weed control at 16 g/ha ([9]; 16 g ai/ha Preemergence) | pest or weed control at 62 g/ha ([12]; 62 g ai/ha Preemergence)
50%: pest or weed control at 16 g/ha ([11]; 16 g ai/ha Preemergence)
15%: pest or weed control at 16 g/ha ([4]; 16 g ai/ha)
100%: pest or weed control at 125 g/ha ([2]; 125 g ai/ha Preemergence) | pest or weed control at 62 g/ha ([2]; Preemergence) | pest or weed control at 31 g/ha ([3]; 31 g ai/ha Preemergence) | pest or weed control at 62 g/ha ([3]; 62 g ai/ha Preemergence) | pest or weed control at 125 g/ha ([3]; 125 g ai/ha Preemergence) | pest or weed control at 16 g/ha ([5]; 16 g ai/ha) | pest or weed control at 31 g/ha ([5]; 31 g ai/ha) | pest or weed control at 125 g/ha ([5]; 125 g ai/ha) | pest or weed control at 62 g/ha [5] | pest or weed control at 31 g/ha ([6]; 31 g ai/ha Preemergence) | pest or weed control at 125 g/ha ([6]; 125 g ai/ha Preemergence) | pest or weed control at 62 g/ha ([6]; Preemergence) | pest or weed control at 16 g/ha ([8]; 16 g ai/ha Preemergence) | pest or weed control at 31 g/ha ([8]; 31 g ai/ha Preemergence) | pest or weed control at 125 g/ha ([8]; 125 g ai/ha Preemergence) | pest or weed control at 62 g/ha ([8]; Preemergence) | pest or weed control at 125 g/ha ([9]; 125 g ai/ha Preemergence) | pest or weed control at 125 g/ha ([11]; 125 g ai/ha Preemergence) | pest or weed control at 125 g/ha ([12]; 125 g ai/ha Preemergence)
70%: pest or weed control at 125 g/ha ([4]; 125 g ai/ha) | pest or weed control at 62 g/ha ([11]; Preemergence) | pest or weed control at 62 g/ha ([14]; 62 g ai/ha Preemergence)
0%: pest or weed control at 16 g/ha ([1]; 16 g ai/ha Preemergence) | pest or weed control at 31 g/ha ([1]; 31 g ai/ha Preemergence) | pest or weed control at 62 g/ha ([1]; 62 g ai/ha Preemergence) | pest or weed control at 125 g/ha ([1]; 125 g ai/ha Preemergence) | Corn plant response rating (crop injury, 0 = no effect, 100 = complete kill) at 16 g/ha (corn (Zea mays); 16 g ai/ha Preemergence) | Corn plant response rating (crop injury, 0 = no effect, 100 = complete kill) at 31 g/ha (corn (Zea mays); 31 g ai/ha Preemergence) | plant injury at 16 g/ha (soybean (Glycine max); 16 g ai/ha Preemergence) | plant injury at 31 g/ha (soybean (Glycine max); 31 g ai/ha Preemergence) | pest or weed control at 16 g/ha ([12]; 16 g ai/ha Preemergence) | pest or weed control at 16 g/ha ([13]; 16 g ai/ha Preemergence) | pest or weed control at 31 g/ha ([13]; 31 g ai/ha Preemergence) | pest or weed control at 62 g/ha ([13]; Preemergence)
65%: pest or weed control at 62 g/ha [4] | pest or weed control at 62 g/ha ([7]; Preemergence) | pest or weed control at 62 g/ha ([10]; Preemergence) | pest or weed control at 31 g/ha ([11]; 31 g ai/ha Preemergence)
